Like-named read-outs stand apart in the source and are kept apart here.
Key:
[1] = tested on: mice; test: Writhing test in mice (acetic acid induced writhing), analgesic activity; assay type: in vivo; conditions: for ED50: Mus musculus, po, 20 min, read-out: Analgesic ED50 Writhing test; for analgesic activity compared with the compounds of the present invention: statement in words, refers to the pharmacological tests of Table 1
Method: Writhing test in mice. (SPF females of the strain NMRI/BOM, weighing 20-25 g). The test substance was administered by gavage ½ hour prior to an intraperitoneal injection of acetic acid. The number of writhing movements in 20 minutes was counted.

[2] = in vivo; assay type: in vivo; conditions: mouse, in vivo, po, read-out: Acute toxicity LD50
[3] = tested on: rats; test: Randall-Selitto test in rats (analgesia-meter, brewer's yeast paw), analgesic activity; assay type: in vivo; conditions: Rattus norvegicus, po, read-out: Analgesic ED50 Analgesia-meter
Method: 2. Randall-Selitto test in rats. (SPF males of the strain Sprague-Dawley, weighing 90-100 g). The test was performed on the whole as described by Randall and Selitto: Arch. Int. Pharmacodyn. […] An analgesia-meter of the make Ugo Basile was used and the test substance was administered by gavage 2 hours after injection of a suspension of brewer's yeast into the rat paw.

[4] = tested on: rats; test: Test for antiinflammatory activity in rats (carrageenin paw); assay type: in vivo; conditions: Rattus norvegicus, po, read-out: Antiinflam-matory test ED50
Method: SPF males of the strain Sprague-Dawley, weighing ~ 150 g were used. The test was performed according to Winter et al.: Proc. Soc. […] The test substance was given by gavage 1 hour prior to injection of a carrageenin-suspension into the rat paw.

[5] = Ulcerogenic activity in rats; conditions: rat, in vivo, po
Method: SPF males of the strain Sprague-Dawley weighing 180-250 g were used. 5 hours after administration by gavage of the test substance the rats were killed by an overdose of ether. The stomachs were removed and opened along the greater curvature. The number of ulcers was assessed and compared to control rats.

[6] = target: PG-synthetase; test: Prostaglandin-synthetase inhibition test; assay type: biochemical; conditions: AA = Arachidonic acid
[7] = tested on: mice; test: in vivo; assay type: in vivo; conditions: statement in words, refers to the pharmacological data of Table 1
[8] = mice, by gavage ½ hour prior to intraperitoneal acetic acid, writhing movements in 20 minutes
[9] = mice, by gavage, observation period 168 hours
[10] = rats, by gavage 2 hours after brewer's yeast injection into the paw
[11] = rats, by gavage 1 hour prior to carrageenin injection into the paw
[12] = rats, by gavage, stomachs examined 5 hours after administration, read-out: Ulcerogenic activity ED50

Row | Compound | ED50 [1, 8] [mg/kg] | LD50 at 168 h [2, 9] [mg/kg] | ED50 [3, 10] [mg/kg] | ED50 [4, 11] [mg/kg] | LD50 at 168 h [2] [mg/kg] | TD50 at 5 h [5] [mg/kg] | Inhibition of PG-synthetase IC50 [6] | analgesic activity compared with the compounds of the present invention [1] | toxicity compared with the compounds of the present invention [7] | ED50 [1] [mg/kg] | ED50 ([3]; 2 h) [mg/kg] | ED50 [4] [mg/kg] | TD50 at 5 h [5, 12] [mg/kg]
1 | COc1ccc(-c2nc(-c3ccc(F)cc3)n(CCC(=O)O)c2-c2ccc(OC)cc2)cc1 [Compound 1, 1-(2-Carboxyethyl)-2-(p-fluorphenyl)-4,5-bis(p-methoxyphenyl)imidazole, reference compound] | > 200 | > 2000 | – | – | – | – | – | – | – | – | – | – | –
2 | COc1ccc(-c2nc(-c3ccccc3F)[nH]c2-c2ccc(OC)cc2)cc1 [Compound 2, 2-(o-Fluorphenyl)-4,5-bis(p-methoxyphenyl)imidazole] | 15 | – | 0.3 | 130 | > 2000 | 590 | – | – | – | – | – | – | –
3 | COc1ccc(-c2nc(-c3cccc(F)c3)[nH]c2-c2ccc(OC)cc2)cc1 [Compound 3, 2-(m-Fluorphenyl)-4,5-bis(p-methoxyphenyl)imidazole] | 3.2 | – | 0.25 | 38 | > 2000 | 870 | – | – | – | – | – | – | –
4 | COc1ccc(-c2nc(-c3ccc(F)cc3)[nH]c2-c2ccc(OC)cc2)cc1 [Compound 4, 2-(p-Fluorphenyl)-4,5-bis(p-methoxyphenyl)imidazole] | 5 | – | 0.3 | 14 | 1900 | 360 | 0,18 µg/10 µg AA | – | – | – | – | – | –
5 | COc1ccc(-c2nc(-c3cccc(F)c3F)[nH]c2-c2ccc(OC)cc2)cc1 [Compound 5, 2-(2,3-Difluorphenyl)-4,5-bis(p-methoxyphenyl) imidazole] | 4.6 | – | 0.55 | 120 | > 2000 | 800 | 0,21 µg/10 µg AA | – | – | – | – | – | –
6 | COc1ccc(-c2nc(-c3ccc(F)cc3F)[nH]c2-c2ccc(OC)cc2)cc1 [Compound 6, 2-(2,4-Difluorphenyl)-4,5-bis(p-methoxyphenyl)imidazole] | 4 | – | 0.8 | 47 | > 2000 | > 300 | 0,27 µg/10 µg AA | – | – | – | – | – | –
7 | COc1ccc(-c2nc(-c3cc(F)ccc3F)[nH]c2-c2ccc(OC)cc2)cc1 [Compound 7, 2-(2,5-Difluorphenyl)-4,5-bis(p-methoxyphenyl)imidazole] | 16 | – | 0.55 | 110 | > 2000 | 1000 | 1,71 µg/10 µg AA | – | – | – | – | – | –
8 | COc1ccc(-c2nc(-c3c(F)cccc3F)[nH]c2-c2ccc(OC)cc2)cc1 [Compound 8, 2-(2,6-Difluorphenyl)-4,5-bis(p-methoxyphenyl)imidazole] | 6.8 | – | 0.55 | 300 | > 2000 | > 300 | 0,13 µg/10 µg AA | – | – | – | – | – | –
9 | COc1ccc(-c2nc(-c3ccc(F)c(F)c3)[nH]c2-c2ccc(OC)cc2)cc1 [Compound 9, 2-(3,4-Difluorphenyl)-4,5-bis(p-methoxyphenyl)imidazole] | 1.9 | > 2000 | – | 15 | – | – | – | – | – | – | – | – | –
10 | COc1ccc(-c2nc(-c3cc(F)cc(F)c3)[nH]c2-c2ccc(OC)cc2)cc1 [Compound 10, 2-(3,5-Difluorphenyl)-4,5-bis(p-methoxyphenyl)imidazole] | 10 | – | 0.45 | 150 | – | 780 | – | – | – | – | – | – | –
11 | COc1ccc(-c2nc(C(F)(F)F)[nH]c2-c2ccc(OC)cc2)cc1 [Compound 11, 2-Trifluormethyl-4,5-bis(p-methoxyphenyl)imidazole, reference compound] | 75 | – | – | 25 | – | 450 | – | weaker analgesic activity | higher toxicity | – | – | – | –
12 | COc1ccc(-c2nc(C(C)C)[nH]c2-c2ccc(OC)cc2)cc1 [Compound 12, 2-Isopropyl-4,5-bis(p-methoxyphenyl)imidazole, reference compound] | 200 | > 2000 | – | – | – | – | – | much weaker analgesic activity | – | – | – | – | –
13 | COc1ccc2c(c1)c(CC(=O)O)c(C)n2C(=O)c1ccc(Cl)cc1 [Compound 13, Indomethacin, reference compound] | – | 21 | – | – | – | – | 0,65 µg/10 µg AA | – | – | 8 | 0.36 | 28 | 9.7
14 | COc1ccc2cc([C@H](C)C(=O)O)ccc2c1 [Compound 14, Naproxen, reference compound] | – | – | 1.6 | 10 | – | – | 0,49 µg/10 µg AA | – | – | – | – | – | 19.5
15 | CC(=O)Oc1ccccc1C(=O)O [Compound 15, Acetyl salicylic acid, reference compound] | – | 1700 | – | – | – | – | 7,61 µg/10 µg AA | – | – | 100 | – | 350 | 340

Reference: patent EP0005219A1, “Arylimidazoles, their synthesis and pharmaceutical or veterinary preparations containing them” (A/S Dumex (Dumex Ltd.), priority 1978, dated 1979)
